According to patent US8362000B2, “Azetidinyl diamides as monoacylglycerol lipase inhibitors” (Janssen Pharmaceutica NV, priority 2009, dated 2013):
Changes are numbered by the printed parent chain. Like-named read-outs stand apart in the source and are kept apart here.

Legend:
[1] = molecular target: T1, purified wild type MGL (wt-MGLL 6H-11-313) (Homo sapiens, UniProt Q99685)
T1 sequence (Q99685 1-303): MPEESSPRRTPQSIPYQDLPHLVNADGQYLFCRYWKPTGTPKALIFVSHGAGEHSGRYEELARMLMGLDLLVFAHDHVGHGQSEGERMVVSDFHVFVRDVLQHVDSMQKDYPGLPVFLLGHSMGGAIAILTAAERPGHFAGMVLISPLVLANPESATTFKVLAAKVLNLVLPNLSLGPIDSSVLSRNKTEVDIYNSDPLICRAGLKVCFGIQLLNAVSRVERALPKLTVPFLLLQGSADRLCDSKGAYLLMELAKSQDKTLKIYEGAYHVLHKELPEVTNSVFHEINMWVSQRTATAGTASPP

mutant MGL = molecular target: T2, mutant MGL (Homo sapiens, UniProt Q99685, L169S/L176S); experiment: MGL ThermoFluor assay - mutant; assay type: binding
T2 sequence (Q99685 1-303 L169S/L176S): T1 sequence (Q99685 1-303) with L169S, L176S

MGL = molecular target: T3, MGL (Rattus norvegicus, UniProt Q8R431); experiment: 2-AG accumulation assay in rat brain homogenate; assay type: biochemical; conditions: for 2-AG accumulation, % of vehicle control at 1 µM: read-out: Rat Brain 2AG % VehCntrl (%) @ 1 μM
T3 construct: one g rat brain was homogenized using a Polytron homogenizer; from tissue; host or cells: rat brain homogenate
T3 sequence (Q8R431 1-303): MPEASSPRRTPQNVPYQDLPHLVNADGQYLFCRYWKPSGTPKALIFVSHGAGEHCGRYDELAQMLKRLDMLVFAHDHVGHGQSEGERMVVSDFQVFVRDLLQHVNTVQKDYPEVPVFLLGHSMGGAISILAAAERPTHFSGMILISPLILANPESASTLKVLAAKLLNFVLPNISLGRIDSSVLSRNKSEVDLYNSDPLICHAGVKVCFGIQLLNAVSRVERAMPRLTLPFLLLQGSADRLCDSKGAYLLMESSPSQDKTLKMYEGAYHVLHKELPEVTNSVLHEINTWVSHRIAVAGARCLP

[2] = ThermoFluor concentration-response, read-out: MGL mutant ThermoFluor Kd
[3] = rat brain homogenate, compound 1 μM, 2-AG accumulation as percent of vehicle
[4] = ThermoFluor thermal stability binding assay, read-out: MGL mutant ThermoFluor Kd
[5] = compound concentration measured by qNMR, read-out: MGL mutant ThermoFluor qKd (using qNMR conc.)
[6] = ThermoFluor, compound concentration measured by qNMR, read-out: MGL mutant ThermoFluor qKd (μM) (using qNMR conc.)

Row | Structure (SMILES) | IC50 [1] | Kd (mutant MGL; [2]) | 2-AG accumulation, % of vehicle control at 1 µM (MGL; [3]) | also measured
1 | O=C(c1ccccc1)N1CCN(C2CN(C(=O)c3ccc(Cc4ccc(C(F)(F)F)cc4)cc3)C2)CC1 [Cpd 771] | 7 nM | 0.05 µM | 465% | –
2 | O=C(c1ccc(Oc2cccc(Cl)c2)c(F)c1)N1CC(N2CCN(C(=O)c3nccs3)CC2)C1 [Cpd 875] | < 5 nM | 0.01 µM | 499% | 2-AG accumulation, % of vehicle control at 0.1 µM (MGL; rat brain homogenate, compound 0.1 μM, 2-AG accumulation as percent of vehicle, read-out: Rat Brain 2AG % VehCntrl (%) @ 0.1 μM): 232%
3 | O=C(c1ccc(Oc2ccc(Br)cn2)cc1)N1CC(N2CCN(C(=O)c3nccs3)CC2)C1 [Cpd 877] | < 5 nM | 0.1 µM | 475% | –
4 | O=C(c1ccc(Oc2cc(C(F)(F)F)ccc2F)nc1)N1CC(N2CCN(C(=O)c3nccs3)CC2)C1 [Cpd 878] | < 5 nM | 0.088 µM | 288% | –
5 | O=C(c1ccc2c(c1)CCN2Cc1cccc(C(F)(F)F)c1)N1CC(N2CCN(C(=O)c3nccs3)CC2)C1 [Cpd 881] | < 5 nM | 0.006 µM | 847% | –
6 | O=C(c1ccc2c(c1)CCN2Cc1ccc(C(F)(F)F)cc1)N1CC(N2CCN(C(=O)c3nccs3)CC2)C1 [Cpd 882] | < 5 nM | 0.012 µM | 697% | –
7 | O=C(c1ccc2c(c1)CCN(c1ccccc1)C2)N1CC(N2CCN(C(=O)c3nccs3)CC2)C1 [Cpd 883] | < 5 nM | – | 767% | Kd (mutant MGL; [4]): 0.059 µM
8 | O=C(c1ccc2c(c1)CCN2c1ccc(F)cc1)N1CC(N2CCN(C(=O)c3nccs3)CC2)C1 [Cpd 885, 1-(4-Fluorophenyl)-5-({3-[4-(1,3-thiazol-2-ylcarbonyl)piperazin-1-yl]azetidin-1-yl}carbonyl)-2,3-dihydro-1H-indole] | < 5 nM | – | 722% | Kd (mutant MGL; [5]): 0.001 µM
9 | CCC(C)(C)c1ccc(C(=O)N2CC(N3CCN(C(=O)c4nccs4)CC3)C2)cc1 [Cpd 887] | < 5 nM | 0.009 µM | 270% | –
10 | O=C(c1ccc(C2CCCCC2)cc1)N1CC(N2CCN(C(=O)c3nccs3)CC2)C1 [Cpd 889] | < 5 nM | 0.002 µM | 683% | –
11 | O=C(c1nccs1)N1CCN(C2CN(C(=O)c3sc4ccc5ccccc5c4c3Cl)C2)CC1 [Cpd 890] | < 5 nM | 0.001 µM | 823% | –
12 | CC(C)Cc1ccc(C(=O)N2CC(N3CCN(C(=O)c4nccs4)CC3)C2)cc1 [Cpd 891] | < 5 nM | 0.008 µM | 422% | –
13 | CCCCCCCc1ccc(C(=O)N2CC(N3CCN(C(=O)c4nccs4)CC3)C2)cc1 [Cpd 892] | < 5 nM | 0.007 µM | 948% | –
14 | CCCCCc1ccc(C(=O)N2CC(N3CCN(C(=O)c4nccs4)CC3)C2)cc1 [Cpd 893] | < 5 nM | 0.005 µM | 626% | –
15 | CCCCc1ccc(C(=O)N2CC(N3CCN(C(=O)c4nccs4)CC3)C2)cc1 [Cpd 894] | < 5 nM | 0.006 µM | 534% | –
16 | O=C(c1nccs1)N1CCN(C2CN(C(=O)c3sc4ccc(Cl)cc4c3C(F)(F)F)C2)CC1 [Cpd 896, 1-(1-{[5-Chloro-3-(trifluoromethyl)-1-benzothiophen-2-yl]carbonyl}azetidin-3-yl)-4-(1,3-thiazol-2-ylcarbonyl)piperazine] | < 5 nM | 0.008 µM | 648% | –
17 | Cc1c(C(=O)N2CC(N3CCN(C(=O)c4cscn4)CC3)C2)sc2ccc(C(F)(F)F)cc12 [Cpd 898] | < 5 nM | – | 520% | Kd (mutant MGL; [4]): 0.009 µM

Row | Structure (SMILES) | IC50 [1] | Kd (mutant MGL; [2]) | 2-AG accumulation, % of vehicle control at 1 µM (MGL; [3]) | also measured
18 | O=C(c1nccs1)N1CCN(C2CN(C(=O)c3sc4cc(F)c(C(F)(F)F)cc4c3Cl)C2)CC1 [Cpd 901, 1-(1-{[3-Chloro-6-fluoro-5-(trifluoromethyl)-1-benzothiophen-2-yl]carbonyl}azetidin-3-yl)-4-(1,3-thiazol-2-ylcarbonyl)piperazine] | < 5 nM | – | 816% | Kd (mutant MGL; [6]): 0.001 µM
19 | O=C(c1nccs1)N1CCN(C2CN(C(=O)c3sc4c(C(F)(F)F)c(F)ccc4c3Cl)C2)CC1 [Cpd 902, 1-(1-{[3-chloro-6-fluoro-7-(trifluoromethyl)-1-benzothiophen-2-yl]carbonyl}azetidin-3-yl)-4-(1,3-thiazol-2-ylcarbonyl)piperazine] | < 5 nM | – | 585% | Kd (mutant MGL; [6]): 0.004 µM
20 | O=C(c1ccc(COc2cccc(Cl)c2)cc1)N1CC(N2CCN(C(=O)c3cscn3)CC2)C1 [Cpd 959] | < 5 nM | 0.044 µM | 861% | –
21 | O=C(c1ccc(OCc2ccc3ccccc3n2)cc1)N1CC(N2CCN(C(=O)C(F)(F)F)CC2)C1 [Cpd 968] | 19 nM | – | 360% | Kd (mutant MGL; [5]): 1.46 µM
22 | O=C(c1ccccc1)N1CCN(C2CN(C(=O)c3ccc(OCc4ccc(Cl)s4)cc3)C2)CC1 [Cpd 972] | 23 nM | – | 683% | Kd (mutant MGL; [4]): 0.08 µM
23 | O=C(c1ccc(OCc2cncc(Cl)c2)cc1)N1CC(N2CCN(C(=O)c3nccs3)CC2)C1 [Cpd 978] | 7 nM | – | 570% | Kd (mutant MGL; [4]): 0.066 µM
24 | O=C(c1ccc(C(F)c2ccc(C(F)(F)F)cc2)cc1)N1CC(N2CCN(C(=O)c3nccs3)CC2)C1 (stereo not drawn) [Cpd 982, 1-{1-[(4-{Fluoro[4-(trifluoromethyl)phenyl]methyl}phenyl)carbonyl]azetidin-3-yl}-4-(1,3-thiazol-2-ylcarbonyl)piperazine] | < 5 nM | 0.01 µM | 762% | –
25 | O=C(c1ccc(F)c(Cc2ccc(C(F)(F)F)cc2)c1)N1CC(N2CCN(C(=O)c3nccs3)CC2)C1 [Cpd 1007, 1-[1-({4-Fluoro-3-[4-(trifluoromethyl)benzyl]phenyl}carbonyl)azetidin-3-yl]-4-(1,3-thiazol-2-ylcarbonyl)piperazine] | 27 nM | 0.259 µM | 180% | –
26 | Cc1c(Cc2ccc(C(F)(F)F)cc2)cccc1C(=O)N1CC(N2CCN(C(=O)c3cscn3)CC2)C1 [Cpd 1009] | 65 nM | 0.589 µM | 706% | –
27 | C/C(=C\c1ccc(Cl)cc1)c1c(C)c(C(=O)N2CC(N3CCN(C(=O)c4ccc[nH]4)CC3)C2)nn1-c1ccc(Cl)cc1Cl [Cpd 1011] | < 5 nM | 0.124 µM | 994% | –
28 | C/C(=C\c1ccc(Cl)cc1)c1c(C)c(C(=O)N2CC(N3CCN(C(=O)C(F)(F)F)CC3)C2)nn1-c1ccc(Cl)cc1Cl [Cpd 1012] | 13 nM | – | 173% | Kd (mutant MGL; [5]): 3.34 µM
29 | O=C(c1ccccc1)c1ccc(C(=O)N2CC(N3CCN(C(=O)c4nccs4)CC3)C2)cc1 [Cpd 1017] | 35 nM | 0.049 µM | 307% | –
30 | O=C(c1ccc[nH]1)N1CCN(C2CN(C(=O)c3nn(-c4ccc(Cl)cc4Cl)c4c3CCC/C4=C\c3ccc(Cl)cc3)C2)CC1 [Cpd 1019] | 6 nM | 0.166 µM | 287% | Kd (mutant MGL; [5]): 0.132 µM
31 | O=C(c1nn(-c2ccc(Cl)cc2Cl)c2c1CCC/C2=C\c1ccc(Cl)cc1)N1CC(N2CCN(C(=O)C(F)(F)F)CC2)C1 [Cpd 1020] | 63 nM | – | – | Kd (mutant MGL; MGL mutant ThermoFluor Kd, ThermoFluor concentration-response): 3 µM; 2-AG accumulation, % of vehicle control at 1 µM (MGL): 135%
32 | O=C(c1nccs1)N1CCN(C2CN(C(=O)c3nn(-c4ccc(Cl)cc4Cl)c4c3CSC/C4=C\c3ccc(F)cc3)C2)CC1 [Cpd 1021] | 15 nM | 0.239 µM | 232% | –
33 | O=C(c1nn(-c2ccc(Cl)cc2Cl)c2c1CSC/C2=C\c1ccc(F)cc1)N1CC(N2CCN(C(=O)C(F)(F)F)CC2)C1 [Cpd 1022] | 67 nM | 0.228 µM | 189% | Kd (mutant MGL; [5]): 1.06 µM
